From patent US20250352676A1, “N-Cyclopropyl-1-(4-(4-(Fluoro-18f)Phenyl)Pyrimidin-5-Yl)-N-Methylpiperidine- 4-Carboxamide and Uses in PET Imaging” (Emory University, priority 2022, published 2025)
Read-outs that look alike come from different tables or passages of the source.

How the values were obtained:
[1] = test system: major CNS targets, including common G protein-coupled receptors, ion channels, enzymes, and transporters; assay: Pharmacological screening on major CNS targets; settings: testing concentration of 10 μM
[2] = format: in vitro ADME, VHP
Description: (§1) PET imaging studies were conducted by intravenous injection of 18F-CHL-2205 to rats. […] Greater than 99% of the brain signal was attributed to the intact parent tracer. The brain signal was substantially devoid of interference by radiometabolites. By ex vivo studies, greater than 90% of the signal in the brain was specific at 15, 30, and 45 min after injection.

[3] = target: T1, CYP46A1 (Homo sapiens, UniProt Q9Y6A2); assay: Clinical PET study in healthy volunteers; format: in vivo; design: from tissue; host or cells: brain of living healthy volunteers; settings: CYP46A1-rich regions
T1 sequence (Q9Y6A2 whole entry): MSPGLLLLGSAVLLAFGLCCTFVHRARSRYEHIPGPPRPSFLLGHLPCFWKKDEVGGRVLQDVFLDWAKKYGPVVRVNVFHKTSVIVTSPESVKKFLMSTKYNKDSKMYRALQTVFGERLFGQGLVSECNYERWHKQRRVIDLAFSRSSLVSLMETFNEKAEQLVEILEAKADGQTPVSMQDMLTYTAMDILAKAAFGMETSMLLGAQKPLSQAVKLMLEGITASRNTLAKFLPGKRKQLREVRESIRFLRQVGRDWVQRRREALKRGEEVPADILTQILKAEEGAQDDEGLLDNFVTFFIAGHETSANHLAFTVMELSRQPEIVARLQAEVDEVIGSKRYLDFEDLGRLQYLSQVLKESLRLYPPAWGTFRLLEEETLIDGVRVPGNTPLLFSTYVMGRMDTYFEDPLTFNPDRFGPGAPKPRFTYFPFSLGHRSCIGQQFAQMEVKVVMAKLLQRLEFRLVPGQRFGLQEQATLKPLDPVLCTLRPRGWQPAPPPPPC
Description: Eight healthy participants underwent a PET scan with 18F-CHL-2205, followed by a magnetic resonance imaging (MRI) scan for anatomical orientation. Because of the physical half-life of fluorine-18 (109.8 min), the tracer was produced on the day of the experiment in a designated hot cell that provided shielding from radiation exposure and was equipped with an automated synthesis module. PET scans were performed for a duration of 90 min, and the data were subsequently reconstructed to allow the assessment of tracer uptake as a surrogate for CYP46A1 abundancy and cholesterol metabolism.
Experiments were performed to determine whether CYP46A1-targeted PET was sensitive to sex differences in brain cholesterol metabolism. […] Conversely, there was no difference in tracer uptake for low-target density regions such as the cerebellum and brainstem. These findings imply that considerable sex differences in brain cholesterol metabolism via CYP46A1 exist in humans.
An open-label clinical study to evaluate the tolerability, safety, and tracer performance characteristics of 18F-CHL-2205 in healthy volunteers (four men and four women, 22 to 31 years of age) was conducted. […] Volumes of distribution were further determined by Logan graphical analysis and were used to calculate binding potentials. […]

[4] = Incubation with mouse liver microsomes (radiodefluorination); format: in vitro ADME
[5] = target: T2, human CYP46A1 (hCYP46A1) (Homo sapiens, UniProt Q9Y6A2); assay: Cell uptake studies in HEK cells overexpressing hCYP46A1; format: cell-based
T2 construct: expressed in transfected cells; host or cells: HEK cells (HEK-CYP46A1)
T2 sequence (Q9Y6A2 whole entry): as above
Description: Cell uptake studies were conducted with transfected human embryonic kidney (HEK) cells overexpressing human CYP46A1 (hCYP46A1) and respective controls.
Cell uptake assays were conducted using hCYP46A1 enzyme-HEK cell line (HEK-CYP46A1) and HEK control cells were cultured in Dulbecco's modified Eagle's medium (DMEM) supplemented with 10% fetal bovine serum and antibiotics (0.1 mg/ml streptomycin and 100 IU/ml penicillin). Cells were kept under standard conditions at 37° C. and 5% CO2 and subsequently subpassaged using a solution of 0.25% trypsin and 0.02% EDTA. For cell uptake measurements, HEK-CYP46A1 and HEK control cells were seeded into a 24-well plate at a density of 2×10^5 cells per well the day before the experiment. The medium was replaced with fresh DMEM including ^18F-CHL-2205 (ca. 74 kBq per well) and incubated at 37° C. for 15, 30, and 45 min. The supernatant was collected, and the cells were washed twice with cold 1×phosphate-buffered salinc (PBS) and then harvested by adding 200 μl of 1N NaOH followed by additional two times rinsing with 1×PBS. The blocking assay was performed with the HEK-CYP46A1 cells. […] Supernatant and cell suspensions including 1×PBS from each wash step were collected and then measured using a gamma counter, whereas cell uptake was expressed as the percentage of the added dose after decay correction.

[6] = Incubation with rat liver microsomes (radiodefluorination); format: in vitro ADME
[7] = target: T3, CYP46A1 (Mus musculus, UniProt Q9WVK8); assay: Saturation binding studies with brain homogenates; design: species or system rodent
T3 sequence (Q9WVK8 whole entry): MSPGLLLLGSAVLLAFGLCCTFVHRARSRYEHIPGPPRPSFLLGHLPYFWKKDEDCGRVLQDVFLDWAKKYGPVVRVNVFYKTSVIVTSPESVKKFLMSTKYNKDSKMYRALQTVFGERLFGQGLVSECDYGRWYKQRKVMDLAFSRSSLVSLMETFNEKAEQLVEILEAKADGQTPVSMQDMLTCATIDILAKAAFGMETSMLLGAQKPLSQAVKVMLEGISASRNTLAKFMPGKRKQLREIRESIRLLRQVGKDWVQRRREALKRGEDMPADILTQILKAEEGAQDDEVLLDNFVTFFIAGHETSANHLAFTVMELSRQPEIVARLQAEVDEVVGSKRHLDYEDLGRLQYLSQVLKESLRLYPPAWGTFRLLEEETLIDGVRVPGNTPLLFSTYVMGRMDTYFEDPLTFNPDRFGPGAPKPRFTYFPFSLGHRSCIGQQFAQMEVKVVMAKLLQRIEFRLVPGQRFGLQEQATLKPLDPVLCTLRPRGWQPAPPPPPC
Description: Experiments were performed to determine whether a targeted PET imaging probe would allow the quantification of cholesterol metabolism in the living brain, ultimately paving the way for mechanistic studies on brain cholesterol metabolism in humans. […] The tracer distribution matched closely with the Allen Brain Atlas distribution of CYP46A1 expression data in the mouse brain. Quantification of CYP46A1 by Western blot analysis in the same brain regions confirmed that tracer binding patterns were in concert with CYP46A1 expression across all tested brain regions. Saturation binding studies were performed to determine the dissociation constant (KD) of the probe as well as to assess the amount of available CYP46A1 protein (Bmax) in selected brain regions.

[8] = Dosimetry experiments; format: in vivo
[9] = target: T3, CYP46A1; assay: Brain binding in Cyp46A1 knockout versus control mice; design: from tissue; host or cells: mouse brain (Cyp46A1+/+ controls; 3xTg-AD mice and controls)
Excerpt: A consideration in CNS-targeted PET constitutes the ability of the tracer to selectivity bind to a target protein while lacking interactions with other abundant brain proteins.

[10] = target: T3, CYP46A1; assay: PET imaging in 3xTg-AD mice and controls; format: in vivo; design: from tissue; host or cells: mouse brain (Cyp46A1+/+ controls; 3xTg-AD mice and controls); settings: baseline, intravenous administration
Description: Tracer binding was assessed and validated in the 3xTg-AD mouse model. […] Hippocampal uptake of the CYP46A1 tracer was compared between 3xTg-AD mice and respective controls.
(§2) CD1, 3×Tg-AD mice and respective controls (sex: female, age: 9 to 13 months), as well as rats were purchased from established commercial vendors and kept under a 12-hour light/12-hour dark cycle, with ad libitum food and water. Animals were allowed to acclimatize for at least 1 week before the start of the experimental procedures. Mice and rats were anesthetized with isoflurane and scanned in a μPET/computed tomography (CT) scanner for 60 min after tail-vein injection of 18F-CHL-2205. Data were reconstructed in user-defined time frames. Time-activity curves (TACs) were calculated with predefined regions of interest. Results are presented as area under the curve (AUC) from the respective TACs of SUVs, indicating the decay-corrected radioactivity per cubic centimeter, divided by the injected dose per gram of body weight.

[11] = target: T4, CYP46A1 (Rattus norvegicus, UniProt A0ACM8QFK4); assay: PET imaging and ex vivo brain studies after intravenous injection to rats; format: in vivo
T4 construct: from tissue; host or cells: brain of living rats
T4 sequence (A0ACM8QFK4 29-500): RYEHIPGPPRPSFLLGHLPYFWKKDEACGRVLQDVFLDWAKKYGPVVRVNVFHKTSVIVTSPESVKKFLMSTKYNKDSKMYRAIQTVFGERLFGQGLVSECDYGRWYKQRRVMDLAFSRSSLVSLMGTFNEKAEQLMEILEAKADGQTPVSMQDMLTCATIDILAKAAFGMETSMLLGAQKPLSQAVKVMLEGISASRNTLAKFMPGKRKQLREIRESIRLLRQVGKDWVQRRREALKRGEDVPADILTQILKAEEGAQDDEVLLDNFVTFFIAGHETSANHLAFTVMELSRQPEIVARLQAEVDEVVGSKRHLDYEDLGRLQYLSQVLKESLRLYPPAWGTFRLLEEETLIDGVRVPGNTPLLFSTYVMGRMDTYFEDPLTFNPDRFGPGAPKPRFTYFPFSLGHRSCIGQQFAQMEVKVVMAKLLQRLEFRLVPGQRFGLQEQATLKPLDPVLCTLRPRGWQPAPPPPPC
Description: as §1, §2

[12] = Incubation with human liver microsomes (radiodefluorination); format: in vitro ADME
[13] = target: T1, CYP46A1; assay: Competitive displacement of 18F-CHL-2205; format: binding
[14] = target: T5, CYP46A1 (Macaca mulatta, UniProt I2CYF7); assay: In vitro autoradiography of NHP brain; format: binding, NHPs; design: from tissue; host or cells: NHP brain sections; settings: excess blocker
T5 sequence (I2CYF7 29-500): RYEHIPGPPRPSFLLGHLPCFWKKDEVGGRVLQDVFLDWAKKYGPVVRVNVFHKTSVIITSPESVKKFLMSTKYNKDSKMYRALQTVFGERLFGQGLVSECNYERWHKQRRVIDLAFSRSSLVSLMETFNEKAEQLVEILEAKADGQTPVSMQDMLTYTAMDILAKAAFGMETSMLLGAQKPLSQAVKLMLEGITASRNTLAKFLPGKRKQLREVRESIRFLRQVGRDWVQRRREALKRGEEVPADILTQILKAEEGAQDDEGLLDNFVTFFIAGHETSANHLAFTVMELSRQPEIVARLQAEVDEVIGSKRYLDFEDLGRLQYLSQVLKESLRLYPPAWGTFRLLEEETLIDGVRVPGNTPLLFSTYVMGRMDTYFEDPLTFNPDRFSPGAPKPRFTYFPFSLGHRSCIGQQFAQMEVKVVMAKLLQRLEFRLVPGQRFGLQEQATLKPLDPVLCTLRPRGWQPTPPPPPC
Description: PET imaging experiments were conducted in non-human primates (NHPs). Consistent with observations from rodent data, the signal intensity of tracer binding correlated with high abundancy regions for CYP46A1, including the putamen, caudate, and limbic cortical regions such as superficial layers of temporal, insular, and cingulate cortex, as evidenced by in vitro autoradiograms of the brain.

[15] = target: T5, CYP46A1; assay: Target occupancy PET study in rhesus monkeys; format: in vivo; design: from tissue; host or cells: brain of living rhesus monkeys; settings: rhesus monkey; dose of 0.9 μmol/kg intravenous, all regions
Description: Four rhesus monkeys (4.8 to 9.3 kg) were anesthetized by intramuscular injection of ketamine (10 mg/kg) and then put on the MRI scanning bed in the supine position. Whole-brain images were acquired. For PET, the subjects were initially anesthetized with ketamine (10 mg/kg, intramuscularly), put on the scanning bed, and maintained under anesthesia with 2% isoflurane and 98% oxygen. All rhesus monkeys were supine, and a stereotactic frame was used to fix the position of the head. […] PET/CT and MR images were co-registered. TACs were derived from the respective volumes of interest and were presented as SUVs, which were decay-corrected to the time of radioligand injection. Whole-blood samples were collected from an arterial catheter to measure radioactivity in whole blood and plasma. […]
Then, the mixture was injected into a high-performance liquid chromatography (HPLC) system equipped with a semipreparative IIPLC column and an ultraviolet detector with the wavelength set at 254 nm. […] The HPLC fractions were collected at 30-s intervals for 13 min; each fraction was counted with automatic gamma well counter. […] Tissue volumes of distribution (VT) and non-displaceable binding potential (BPND) values were determined from a two-tissue compartment model, with metabolite-corrected arterial input function.

off-target activity [1] | stability against radio defluorination [2] | SUV15-30 in the caudate and putamen, women versus men [3] | stability against radio defluorination [4] | cell uptake in transfected cells compared to controls ([5]; HEK cells overexpressing hCYP46A1 vs HEK controls) | stability against radio defluorination [6] | Bmax (amount of available CYP46A1 protein) ([7]; cerebellum) [fmol/g] | Bmax (amount of available CYP46A1 protein) ([7]; striatum) [fmol/g] | effective dose [8] [mSv/MBq] | tracer binding in brains of Cyp46A1−/− animals versus control ([9]; Cyp46A1−/− vs Cyp46A1+/+ mice) | hippocampal time-activity curves (TACs) in 3xTg-AD mice versus controls [10] | brain signal attributed to the intact parent tracer ([11]; brain) | specific signal in the brain ([11]; ex vivo studies, 15, 30, and 45 min after injection) | brain uptake after systemic administration ([11]; rats, intravenous injection, PET) | stability against radio defluorination [12] | Structure (SMILES) | displacement of 18F-CHL-2205 [13] | tracer signal of the transfected cell population on co-incubation ([5]; escalating doses, HEK-CYP46A1 cells, 18F-CHL-2205 tracer) | tracer binding in control brains under blockade ([9]; excess dose, Cyp46A1+/+ brains) | autoradiography signal on co-incubation [14] | receptor occupancy at 0.9 µmol/kg [15] [%]
no off-target activity | stable against radio defluorination | higher in women than in men | stable against radio defluorination | fivefold increase | stable against radio defluorination | 21.9 | 117.3 | 0.012 | signal diminished | consistently higher | Greater than 99% | greater than 90% | rapid tracer uptake into the brain | stable against radio defluorination | CN(C(=O)C1CCN(c2cncnc2-c2ccc([18F])cc2)CC1)C1CC1 [18F-CHL-2205, N-cyclopropyl-1-(4-(4-(fluoro-18F)phenyl)pyrimidin-5-yl)-N-methylpiperidine-4-carboxamide] | – | – | – | – | –
– | – | – | – | – | – | – | – | – | – | – | – | – | – | – | O=C(c1cccnc1-c1ccncc1)N1CCC(O)(Cc2ccccc2)CC1 [soticlestat] | competitive displacement | attenuated in a dose-dependent manner | reduced to the signal observed in Cyp46A1−/− animals | relative signal reduction | > 90
– | – | – | – | – | – | – | – | – | – | – | – | – | – | – | C[C@@H](c1ncncc1F)[C@](O)(Cn1cncn1)c1ccc(F)cc1F [voriconazole] | competitive displacement | – | – | – | –
